From patent publication US4771041A, “Method for combating virus infection” (priority 1976, dated 1988)

What was measured:
[1] = biological target: HTLV-III reverse transcriptase (Human immunodeficiency virus type 1 group M subtype B, UniProt P03366); assay: HTLV-III reverse transcriptase assay; type: biochemical
Experimental: The purified enzyme was stored in 50 mM Tris-HCl (pH 7.5), 1 mM dithiothreitol (DTT), 0.01% Triton X-100 and 20% glycerol. Reverse transcriptase assays were carried out in a reaction mixture (50 μl) containing 50 mM Tris-HCl (pH 7.5), 5 mM DTT, 100 mM potassium chloride, 0.01% Triton X-100 or NP40, 10 μg/ml (dT)15.(A)n as template primer and /^3 H/deoxythymidine triphosphate (/^3 H/-dTTP). The reaction mixture was incubated for 1 hour at 37° and the reaction was stopped by the addition of 50 μg of yeast tRNA and 2 ml of 10% solution of trichloroacetic acid (TCA) containing 1 mM sodium pyrophosphate. The samples were filtered on millipore filters (0.45 μm), washed first with 5% TCA solution (5 times) and then with 2 ml of 70% ethanol. The filters were dried under a heat lamp, scintillation fluid was added and the radioactivity counted in a β-scintillation counter.
The effect of foscarnet on purified HTLV-III reverse transcriptase (RT) was assayed as a function of drug concentration.

[2] = tested on: Ehrlich ascites tumors (Friend virus); assay: Survival of NMRI mice bearing Ehrlich ascites tumors; type: in vivo; details: 100 mg/kg per day ip, 2% solution pH 7.2; versus 0.95% NaCl control; FIG. 2
Experimental: The inhibition of reverse transcriptase by phosphonoformic acid (PFA) has prompted an investigation of the effect of PFA on animals with tumors where retroviruses are implicated. Ehrlich ascites tumors (Friend virus) in NMRI mice and YBA solid tumors (Moloney virus) in CBA mice have been used.
NMRI mice were inoculated intraperitoneally with 0.1 ml of a 1/10 dilution of ascitic fluid from a mouse with an Ehrlich ascites tumor. Nine mice were given intraperitoneally 100 mg/kg of PFA per day as a 2% solution at pH 7.2, and 9 mice were treated with 0.95% NaCl ip. CBA mice were inoculated with 7×10^6 cells subcutaneously in the flank. Fifteen CBA mice were given 0.5% PFA at pH 7.2 in the drinking water and fifteen water without addition.

[3] = tested on: influenza virus (WSN); assay: Influenza virus (WSN) plaque assay on MDCK monolayers; type: cell-based, influenza (WSN Wilson Smith Neurotropic type A); details: unidentified influenza virus, read-out: Inhibition of plaque
[4] = Toxicity controls with substance in uninfected mice; type: in vivo
Description: Toxicity controls with substance were given to uninfected animals.

[5] = biological target: calf thymus DNA dependent RNA polymerase fraction B (DCB) (Bos taurus, UniProt A5PJW8+G3MZY8); assay: Inhibition of calf thymus DNA dependent RNA polymerase fraction B; type: biochemical; details: read-out: Inhibition % DCB
Experimental: (§1) Polymerases, nucleic acid template nucleoside triphosphates, of which guanosine triphosphate is tritium-labelled, salt and buffer are mixed at 0° C. in a total volume of 125 μl (for herpes DNA polymerase, see F. below). The concentrations of the nucleoside triphosphates UTP (uridine triphosphate), CTP (cytidinetriphosphate), GTP (guanosinetriphosphate) and ATP (adenosinetriphosphate) were generall 400, 400, 400, and 2000 μM, respectively. The test compound is also added in various concentrations to the mixture obtained. A standard mixture without test compound is also prepared using the same amounts of the ingredients. The enzyme reaction, i.e. synthesis of nucleic acid, is started by incubating the mixture at 37° C. For influenza RNA polymerases the temperature is 33° C. The reaction is allowed to proceed for 60 minutes in the assay of influenza and Micrococcus polymerases. […] The incorporation of labelled monomer into trichloroacetic acid insoluble nucleic acid product was measured in the following way. […] After drying the discs are measured for radioactivity in a liquid scintillation counter. The difference in radioactivity between samples with and without added compound is used to calculate the inhibition of the polymerase activity. The inhibition is expressed as percentage inhibition using the radioactivity of the standard sample as basis. […]

[6] = biological target: Micrococcus luteus DNA dependent DNA polymerase (Micrococcus luteus, UniProt C5CBM1); assay: Inhibition of Micrococcus luteus DNA dependent DNA polymerase; type: biochemical
Chain of Micrococcus luteus DNA dependent DNA polymerase (C5CBM1 entry or part of it): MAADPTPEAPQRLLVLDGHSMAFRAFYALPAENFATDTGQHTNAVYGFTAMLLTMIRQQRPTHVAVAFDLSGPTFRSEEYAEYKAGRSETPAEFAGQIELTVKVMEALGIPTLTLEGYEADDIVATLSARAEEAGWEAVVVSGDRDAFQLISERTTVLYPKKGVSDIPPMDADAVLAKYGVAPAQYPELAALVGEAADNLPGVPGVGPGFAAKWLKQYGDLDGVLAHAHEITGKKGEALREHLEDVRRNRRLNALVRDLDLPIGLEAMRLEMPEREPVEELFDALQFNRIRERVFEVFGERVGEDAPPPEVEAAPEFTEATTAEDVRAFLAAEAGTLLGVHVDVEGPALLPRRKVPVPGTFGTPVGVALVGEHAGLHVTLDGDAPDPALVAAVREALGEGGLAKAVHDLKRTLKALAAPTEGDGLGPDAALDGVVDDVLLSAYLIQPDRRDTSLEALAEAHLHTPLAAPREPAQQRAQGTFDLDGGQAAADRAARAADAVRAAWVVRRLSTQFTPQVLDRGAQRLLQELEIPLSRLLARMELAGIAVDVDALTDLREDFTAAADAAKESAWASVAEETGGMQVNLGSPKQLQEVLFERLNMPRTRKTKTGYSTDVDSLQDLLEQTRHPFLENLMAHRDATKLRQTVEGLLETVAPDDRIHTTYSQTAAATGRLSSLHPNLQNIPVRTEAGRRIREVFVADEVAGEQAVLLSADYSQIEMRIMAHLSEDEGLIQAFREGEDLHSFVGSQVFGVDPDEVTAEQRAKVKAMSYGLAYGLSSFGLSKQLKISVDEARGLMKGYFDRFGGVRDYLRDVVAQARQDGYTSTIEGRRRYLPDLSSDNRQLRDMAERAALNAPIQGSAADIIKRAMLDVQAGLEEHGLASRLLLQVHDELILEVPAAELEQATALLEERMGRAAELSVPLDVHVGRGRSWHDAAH
Experimental: as §1

[7] = tested on: reverse transcriptase from RMuLV; assay: Cell-free reverse transcriptase inhibition, RMuLV; type: biochemical, Rauscher murine leukemia virus; details: template/primer (rA)n.(dT)10
Experimental: (§2) Reverse transcriptase from various retroviruses have been tested in cell-free assays for inhibition by phosphonoformic acid and phosphonoacetic acid. The assay conditions have been described by Collaborative Research, Inc, 1365 Main Street, Waltham, Mass., USA "Assay kit for mammalian viral reverse transcriptase". BLV and VV were prepared in this laboratory and all other viruses and viral enzyme were obtained from Dr. K Nilsson, Department of Pathology, University of Uppsala and from Boehringer Mannheim, Germany. Phosphonoformic acid (PFA) and phosphonoacetic acid (PAA) were added at pH 7.2 to the reaction mixtures at the start of the reaction.
(§3) Rauscher murine leukemia virus; RMuLV, visna virus; VV, avian myeloblastosis virus; AMV, bovine leukemia virus; BLV, baboon endogenous virus; BaEV, simian sarcoma virus; SSV.

[8] = biological target: T1, reverse transcriptase from BaEV (Baboon endogenous virus, UniProt P10272); assay: Cell-free reverse transcriptase inhibition, BaEV; type: biochemical; details: template/primer (rA)n.(dT)10, read-out: Percent inhibition
T1 construct: Reverse transcriptase from various retroviruses have been tested in cell-free assays
T1 sequence (P10272 659-1335): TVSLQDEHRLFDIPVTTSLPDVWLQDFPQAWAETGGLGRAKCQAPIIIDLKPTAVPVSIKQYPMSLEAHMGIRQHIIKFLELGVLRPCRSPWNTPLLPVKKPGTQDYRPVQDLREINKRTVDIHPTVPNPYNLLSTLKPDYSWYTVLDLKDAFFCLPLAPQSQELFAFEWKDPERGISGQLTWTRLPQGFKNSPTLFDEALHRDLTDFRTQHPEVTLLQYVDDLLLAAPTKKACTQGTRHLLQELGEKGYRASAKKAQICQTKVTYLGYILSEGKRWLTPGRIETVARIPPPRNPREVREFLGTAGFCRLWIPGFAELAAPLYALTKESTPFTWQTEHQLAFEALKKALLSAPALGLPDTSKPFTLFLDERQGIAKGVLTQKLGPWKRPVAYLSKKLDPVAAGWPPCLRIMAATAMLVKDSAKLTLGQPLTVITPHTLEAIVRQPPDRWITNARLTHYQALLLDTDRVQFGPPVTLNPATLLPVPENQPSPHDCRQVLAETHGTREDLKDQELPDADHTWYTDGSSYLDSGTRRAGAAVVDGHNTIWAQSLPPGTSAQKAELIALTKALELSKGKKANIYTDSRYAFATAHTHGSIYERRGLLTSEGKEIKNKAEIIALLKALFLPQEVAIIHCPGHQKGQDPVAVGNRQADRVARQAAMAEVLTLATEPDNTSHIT
Experimental: as §2, §3

[9] = biological target: T2, reverse transcriptase from BLV (Bovine leukemia virus, UniProt P03361); assay: Cell-free reverse transcriptase inhibition, BLV; type: biochemical; details: template/primer (rA)n.(dT)10, read-out: Percent inhibition
T2 construct: Reverse transcriptase from various retroviruses have been tested in cell-free assays; made in house
T2 sequence (P03361 546-1120): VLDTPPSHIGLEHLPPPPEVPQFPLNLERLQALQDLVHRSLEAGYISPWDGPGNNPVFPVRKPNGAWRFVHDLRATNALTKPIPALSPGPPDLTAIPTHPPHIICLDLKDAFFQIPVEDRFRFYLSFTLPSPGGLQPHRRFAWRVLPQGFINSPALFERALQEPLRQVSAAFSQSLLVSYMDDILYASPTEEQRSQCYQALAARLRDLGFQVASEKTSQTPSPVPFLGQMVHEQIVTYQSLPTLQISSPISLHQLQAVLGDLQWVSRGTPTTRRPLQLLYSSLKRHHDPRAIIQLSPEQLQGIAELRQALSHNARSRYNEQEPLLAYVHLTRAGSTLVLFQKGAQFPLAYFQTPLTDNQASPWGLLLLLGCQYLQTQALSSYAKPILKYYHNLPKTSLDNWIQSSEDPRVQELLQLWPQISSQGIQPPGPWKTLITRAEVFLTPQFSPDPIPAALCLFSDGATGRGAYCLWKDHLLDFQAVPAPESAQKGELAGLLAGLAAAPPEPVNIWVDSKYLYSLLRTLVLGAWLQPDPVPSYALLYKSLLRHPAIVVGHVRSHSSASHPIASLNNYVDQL
Experimental: as §2, §3

In the case of `O=C(O)P(=O)(O)O` [phosphonoformic acid], the IC50 ([1]; purified enzyme from different virus isolates, (dT)15.(A)n template primer, read-out: concentration causing 50% inhibition of HTLV-III reverse transcriptase activity) is reported as 100 to 2000 nM, the “type of inhibition of reverse transcriptase” value ([1]; with respect to substrate and template) is reported as “noncompetitive with respect to substrate and uncompetitive with respect to template” and the “survival of mice inoculated with Ehrlich ascites cells” value [2] is reported as “increased survival”. It also gave an inhibition at 100 µM [3] of 10%, an inhibition at 250 µM [3] of 50% and an inhibition at 500 µM [3] of 95%. For the same compound, the “deaths in substance control group” value ([4]; 0.5% in the drinking water, 10 mice) was “No mice died”, the “deaths in toxicity control group” value ([4]; uninfected mice, 100 mg/kg/day, 10 animals) was “No mice died” and the inhibition at 500 µM [5] was 0%. For the same compound, the inhibition at 500 µM [6] was 6%, the Percent inhibition ([7]; 10 μM) was 90% and the Percent inhibition ([7]; 100 μM) was 96%. It also gave a Percent inhibition ([7]; 500 μM) greater than 99%, an inhibition at 10 µM ([8]; 10 μM) of 96% and an inhibition at 100 µM ([8]; 100 μM) greater than 99%. The inhibition at 500 µM ([8]; 500 μM) was greater than 99%, the inhibition at 100 µM ([9]; 100 μM) was 88% and the inhibition at 500 µM ([9]; 500 μM) was 93%.
